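How tested: cells in 96-well plates exposed to compound for 48 hours at five concentrations. Here, GI50 denotes the concentration required for 50% inhibition of growth.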 Calls of active or inactive are those of the source. Cut-off read from the data, not from the text of the source: active = GI50 up to about 1.1 µM and inactive = higher.
Tests used:
Experiment in all cases: NCI tumour cell line growth inhibition, 48 h
SW-620 = system: SW-620
OVCAR-5 = system: OVCAR-5
EKVX = system: EKVX
SF-295 = system: SF-295
HOP-62 = system: HOP-62
A498 = system: A498
UACC-257 = system: UACC-257
OVCAR-4 = system: OVCAR-4
OVCAR-8 = system: OVCAR-8
A549 = system: A549
786-0 = system: 786-0
M14 = system: M14
MDA-MB-435 = system: MDA-MB-435
U-251 = system: U-251
SNB-19 = system: SNB-19
SN12C = system: SN12C
KM12 = system: KM12
HOP-92 = system: HOP-92
SF-268 = system: SF-268

Compound | GI50 (SW-620) | GI50 (OVCAR-5) | GI50 (EKVX) | GI50 (SF-295) | GI50 (HOP-62) | GI50 (A498) | GI50 (UACC-257) | GI50 (OVCAR-4) | GI50 (OVCAR-8) | GI50 (A549) | GI50 (786-0) | GI50 (M14) | GI50 (MDA-MB-435) | GI50 (U-251) | GI50 (SNB-19) | GI50 (SN12C) | GI50 (KM12) | GI50 (HOP-92) | GI50 (SF-268)
CN(C)CCN(C)c1ccc2c(=O)n(CCN(C)C)c(=O)n3c4ccccc4c(=O)c1c23 | 0.119 µM (active) | 1.87 µM (inactive) | 1.66 µM (inactive) | 0.34 µM (active) | 0.0897 µM (active) | 0.471 µM (active) | 1.56 µM (inactive) | 0.364 µM (active) | 0.582 µM (active) | 0.0353 µM (active) | 0.108 µM (active) | 0.986 µM (active) | 1.26 µM (inactive) | 0.489 µM (active) | 0.518 µM (active) | 0.0964 µM (active) | 1.26 µM (inactive) | 0.145 µM (active) | 
Cc1[nH]c(/C=C2\C(=O)Nc3ccccc32)c(C)c1CCC(=O)O [ORANTINIB] | 25.7 µM (inactive) | 27.5 µM (inactive) | 28.5 µM (inactive) | 32.5 µM (inactive) | 29.4 µM (inactive) | 55 µM (inactive) | 23.7 µM (inactive) | 33.6 µM (inactive) | 40.7 µM (inactive) | 33.9 µM (inactive) | 51.4 µM (inactive) | 23.1 µM (inactive) | 36.5 µM (inactive) | 59.4 µM (inactive) | 53.5 µM (inactive) | 31 µM (inactive) | 4.37 µM (inactive) | 21.8 µM (inactive) | 34.4 µM (inactive)
Oc1cc(O)c2c(c1)OC(c1ccc(O)c(O)c1)C(O)C2c1c(O)cc(O)c2c1OC(c1ccc(O)c(O)c1)C(O)C2 (stereo unspecified) | 45.4 µM (inactive) | > 100 µM (inactive) | > 100 µM (inactive) | > 100 µM (inactive) | > 100 µM (inactive) | 45.5 µM (inactive) | > 100 µM (inactive) | > 100 µM (inactive) | > 100 µM (inactive) | > 100 µM (inactive) | > 100 µM (inactive) | > 100 µM (inactive) | > 100 µM (inactive) | > 100 µM (inactive) | > 100 µM (inactive) | > 100 µM (inactive) | 46.5 µM (inactive) | > 100 µM (inactive) | > 100 µM (inactive)
CN(C)CCCNC(=O)CCNC(=O)c1cc(NC(=O)c2cc(NC(=O)c3cc(NC(=O)c4nc(NC(=O)CCCNC(=O)c5cc(NC(=O)c6cc(NC(=O)c7cc(NC(=O)c8nccn8C)cn7C)cn6C)cn5C)cn4C)cn3C)cn2C)cn1C | > 100 µM (inactive) | > 100 µM (inactive) | > 100 µM (inactive) | > 100 µM (inactive) | > 100 µM (inactive) | > 100 µM (inactive) | > 100 µM (inactive) | > 100 µM (inactive) | > 100 µM (inactive) | > 100 µM (inactive) | > 100 µM (inactive) | > 100 µM (inactive) | > 100 µM (inactive) | > 100 µM (inactive) | > 100 µM (inactive) | > 100 µM (inactive) | 73.5 µM (inactive) | > 100 µM (inactive) | > 100 µM (inactive)
O=C1c2ccccc2CC12Cc1cc3c(cc1C2=O)CCC3 (stereo unspecified) | > 100 µM (inactive) | > 100 µM (inactive) | > 100 µM (inactive) | > 100 µM (inactive) | > 100 µM (inactive) | > 100 µM (inactive) | > 100 µM (inactive) | > 100 µM (inactive) | > 100 µM (inactive) | > 100 µM (inactive) | > 100 µM (inactive) | > 100 µM (inactive) | > 100 µM (inactive) | > 100 µM (inactive) | > 100 µM (inactive) |  |  | > 100 µM (inactive) | > 100 µM (inactive)
CC(C)[Si](OC12CCC(CC1O)CC2C(=O)O)(C(C)C)C(C)C (stereo unspecified) | 14.9 µM (inactive) | 14 µM (inactive) |  | 15.7 µM (inactive) | 14.4 µM (inactive) | 15.3 µM (inactive) | 16.7 µM (inactive) | 12.6 µM (inactive) | 16.1 µM (inactive) | 14.5 µM (inactive) | 11 µM (inactive) | 15.8 µM (inactive) | 14.5 µM (inactive) | 14.6 µM (inactive) | 15.6 µM (inactive) | 21.7 µM (inactive) | 12.4 µM (inactive) | 7.31 µM (inactive) | 12.7 µM (inactive)
COc1ccc(NC(=S)C#N)cc1 | > 100 µM (inactive) | > 100 µM (inactive) |  | > 100 µM (inactive) | > 100 µM (inactive) | 51.9 µM (inactive) | > 100 µM (inactive) |  | > 100 µM (inactive) | > 100 µM (inactive) | > 100 µM (inactive) | > 100 µM (inactive) | > 100 µM (inactive) | > 100 µM (inactive) | > 100 µM (inactive) | > 100 µM (inactive) | > 100 µM (inactive) | 97.3 µM (inactive) | > 100 µM (inactive)
Cc1ccc(/C=c2\cc3oc(=O)c4cccc(c4-3)c2=O)cc1 | > 100 µM (inactive) | > 100 µM (inactive) | > 100 µM (inactive) | > 100 µM (inactive) | > 100 µM (inactive) | > 100 µM (inactive) | > 100 µM (inactive) | > 100 µM (inactive) | 97.7 µM (inactive) |  | > 100 µM (inactive) | > 100 µM (inactive) | > 100 µM (inactive) | 63.7 µM (inactive) | > 100 µM (inactive) | > 100 µM (inactive) |  | > 100 µM (inactive) | 59.3 µM (inactive)
Nc1nc(Cl)cc(NCC2(CO)COC2)n1 | > 100 µM (inactive) | > 100 µM (inactive) | > 100 µM (inactive) | > 100 µM (inactive) | > 100 µM (inactive) | > 100 µM (inactive) | > 100 µM (inactive) | > 100 µM (inactive) | > 100 µM (inactive) | > 100 µM (inactive) | > 100 µM (inactive) |  | > 100 µM (inactive) | > 100 µM (inactive) |  | > 100 µM (inactive) | > 100 µM (inactive) | > 10 µM (inactive) | > 100 µM (inactive)
COc1ccc(CNc2nc3ccccc3nc2-c2cccs2)cc1 | 51.9 µM (inactive) | > 100 µM (inactive) | 97.9 µM (inactive) | 46.7 µM (inactive) | > 100 µM (inactive) | 29.4 µM (inactive) | 31.2 µM (inactive) | 29.9 µM (inactive) | 28.9 µM (inactive) | 33.1 µM (inactive) | 43.9 µM (inactive) |  | 27.4 µM (inactive) | 28.8 µM (inactive) |  |  | 28.9 µM (inactive) | 16.6 µM (inactive) | > 100 µM (inactive)
COc1ccc(CC2c3cc(OC)c(OC)c(OC)c3CC[N+]2(C)C)cc1Oc1ccc(CC2c3cc4c(c(OC)c3CC[N+]2(C)C)OCO4)cc1 (stereo unspecified) | > 100 µM (inactive) | > 100 µM (inactive) | > 100 µM (inactive) | > 100 µM (inactive) |  | > 100 µM (inactive) | > 100 µM (inactive) | > 100 µM (inactive) | > 100 µM (inactive) | 34.4 µM (inactive) | > 100 µM (inactive) | > 100 µM (inactive) | > 100 µM (inactive) | > 100 µM (inactive) | > 100 µM (inactive) | > 100 µM (inactive) | > 100 µM (inactive) | > 100 µM (inactive) | > 100 µM (inactive)
CN(C)Cc1cc(C(=O)/C=C/c2cccc(Cl)c2)cc(CN(C)C)c1O | 4.41 µM (inactive) | 5.69 µM (inactive) | 7.03 µM (inactive) | 13.5 µM (inactive) | 3.65 µM (inactive) | 3.22 µM (inactive) | 5.56 µM (inactive) |  | 8.55 µM (inactive) | 11.8 µM (inactive) | 3.29 µM (inactive) | 3.37 µM (inactive) | 3.48 µM (inactive) | 2.74 µM (inactive) | 24.5 µM (inactive) | 3.39 µM (inactive) | 4.97 µM (inactive) | 4.31 µM (inactive) | 6.62 µM (inactive)
COC(=O)[C@]1(c2cc3ccccc3n2S(=O)(=O)c2ccccc2)CC2CCC1NC2 (stereo partly specified) | 14.5 µM (inactive) | 16.1 µM (inactive) | 14.2 µM (inactive) | 16.9 µM (inactive) | 18 µM (inactive) |  | 15.8 µM (inactive) | 16.4 µM (inactive) | 14.9 µM (inactive) | 12.6 µM (inactive) | 14.3 µM (inactive) | 14.2 µM (inactive) | 14.2 µM (inactive) | 13.6 µM (inactive) | 14.8 µM (inactive) | 15.7 µM (inactive) | 15.1 µM (inactive) | 9.25 µM (inactive) | 16.8 µM (inactive)
OCC1NC(COC2OC(CO)C(O)C(O)C2O)C(O)C(O)C1O (stereo unspecified) | > 100 µM (inactive) | > 100 µM (inactive) |  | > 100 µM (inactive) |  | > 100 µM (inactive) | > 100 µM (inactive) | > 100 µM (inactive) | > 100 µM (inactive) | > 100 µM (inactive) | > 100 µM (inactive) | > 100 µM (inactive) | > 100 µM (inactive) | > 100 µM (inactive) | > 100 µM (inactive) | > 100 µM (inactive) | > 100 µM (inactive) | > 100 µM (inactive) | > 100 µM (inactive)
CO/C(N)=C(C#N)/N=C/c1cccnc1 | > 100 µM (inactive) | > 100 µM (inactive) | > 100 µM (inactive) | > 100 µM (inactive) | > 100 µM (inactive) | > 100 µM (inactive) | > 100 µM (inactive) | > 100 µM (inactive) | > 100 µM (inactive) | > 100 µM (inactive) | > 100 µM (inactive) | > 100 µM (inactive) | > 100 µM (inactive) | > 100 µM (inactive) |  | > 100 µM (inactive) | > 100 µM (inactive) | > 100 µM (inactive) | > 100 µM (inactive)
